Results as given in patent US20120252721A1 (priority 2011, published 2012).

Tests used:
[1] = test system: HCV genotype 1a H77 strain subgenomic luciferase replicon (H1a-luc); assay: Luciferase replicon assay, genotype 1a; format: cell-based; conditions: Hepatitis C virus, read-out: EC50 1a
Description: (§1) Drug titration analysis was performed using the luciferase replicon assay described herein.
(§2) The HCV luciferase replicon assay measures the ability of a test compound to inhibit HCV replication in cell culture after 3 days of treatment in a human hepatoma cell line (Huh-7) bearing an HCV replicon containing a luciferase-neomycin phosphotransferase fusion gene. The inhibition of HCV replication was measured by quantification of luciferase protein expression. Briefly, Huh-7 cells containing either the HCV genotype 1a H77 strain or genotype 1b Con1 strain subgenomic luciferase replicon (H1a-luc or Zluc, respectively) were grown in DMEM containing glucose, L-glutamine and sodium pyruvate, 10% fetal bovine serum (FBS), 100 IU/mL penicillin, 100 μg/mL streptomycin, 2 mM GlutaMAX, non-essential amino acids and 0.25 (H1a-luc) or 0.5 (Zluc) mg/mL G418. GlutaMAX was obtained from Invitrogen, Corp.; all other media reagents were obtained from Mediatech, Inc. For dose-response testing, the cells were seeded in 96-well plates at 1×10^4 (H1a-luc) or 7.5×10^3 (Zluc) cells/well in a volume of 50 μL, and incubated at 37° C./5% CO2. Three hours after plating, 50 μL of ten 5-fold serial dilutions of compound were added, and cell cultures were incubated at 37° C./5% CO2 for 72 hours. In all cases, Huh-7 cells lacking the HCV replicon served as negative control. To assess luciferase expression, the media/compound was removed from the plates and ONE-glo Luciferase assay reagent (Promega) was added to each well. The assay plates were shaken for 3 minutes at room temperature and luciferase activity for each well was measured with a 1 sec read time on the Victor^3V multilabel counter using a 700 nm cut-off filter (Perkin Elmer). EC50 values were calculated from dose response curves from the resulting best-fit equations determined by Microsoft Excel and XLfit 4.1 software.

[2] = test system: H1a-luc or Zluc cells; assay: in vitro; format: cell-based, human; conditions: Table 1B, cellular viability
Description: (§3) For cytotoxicity evaluation, HPC cells were treated with compounds as described above in the absence of the genotype 2a virus and cellular viability was monitored using the Cell Titer 96 AQueous One Solution Cell Proliferation Assay (Promega). Plates were then read at 490 nm in a Victor^3V 1420 multilabel counter (Perkin Elmer) and CC50 concentrations were determined using Microsoft Excel and XLfit 4.1 software.
as §3, with “H1a-luc or Zluc” for “HPC”, “above” for “above in the absence of the genotype 2a virus”

[3] = test system: HCV genotype 1b Con1 strain subgenomic luciferase replicon (Zluc); assay: Luciferase replicon assay, genotype 1b; format: cell-based; conditions: Hepatitis C virus
Description: as §2

[4] = test system: HCV genotype 2a; assay: Genotype 2a assay (NS5A-intergenotypic luciferase replicon / genotype 2a infectious virus assay); format: cell-based; conditions: Hepatitis C virus, read-out: EC50 2a
From the text: (§4) The nucleotide sequences of the NS5A region of genotype 2a (GenBank Accession # AB047639), genotype 3a (GenBank Accession #D17763), and genotype 4a (GenBank Accession# DQ418788) were synthesized by an outside vendor. The NS5A region of each of these genotypes included the first 11 amino acids of the protease recognition sequence of genotype 1b, as well as the last 10 amino acids of genotype 1b. The NS5A gene cassettes were excised with site specific restriction endonucleases and ligated into a ZS11-luciferase genotype 1b backbone (backbone contains the genotype 1b NS3 protease, NS4a, NS4b, and NS5b coding regions) with similarly cut restriction enzyme sites. Thus, the newly constructed plasmid contains a genotype 2a-, 3a- or 4a-specific NS5A gene within the 1b-replicon.
(§5) These new intergenotypic plasmids were used to establish stable cell lines. RNA was generated from the NS5A intergenotypic plasmids and used in conjunction with a lipofectin reagent to transfect a cured Huh7 cell line. Transfected cells were selected for with G418. After selection has occurred the stable cell lines were propagated, tested for luciferase activity, and RT-PCR with genotype specific primers (either 1a, 2a, 3a, or 4a). Stable cell lines containing the intergenotypic replicon were then fully sequenced and analyzed for proper expression of NS3, NS5A and NS5B proteins.
as §1
The genotype 2a infectious virus assay measures the ability of a test compound to inhibit HCV replication in cell culture after 5 days of treatment at the time of HCV genotype 2a virus infection of a permissive human hepatoma cell line (HPC cells). The inhibition of HCV replication was measured by quantification of HCV core protein expression by an enzyme-linked immunosorbent assay (ELISA). Briefly, HPC cells were grown in DMEM containing glucose, L-glutamine and sodium pyruvate, 10% FBS, 100 IU/mL penicillin, 100 μg/mL streptomycin, 2 mM GlutaMAX, and non-essential amino acids. GlutaMAX was obtained from Invitrogen, Corp.; all other media reagents were obtained from Mediatech, Inc. For dose-response testing, ninety-six-well plates were seeded with HPC cells at a density of 2.5×10^3 cells/well in a volume of 50 μL, and incubated at 37° C./5% CO2. Three hours after plating, 50 μL of ten 5-fold serial dilutions of compound and 100 μL of genotype 2a virus were added, and cell cultures were incubated at 37° C./5% CO2. In all cases, mock infected HPC cells served as negative control. At 16 hours post treatment and infection, the virus inoculum was removed by aspiration. The cultures were treated at the same final concentrations of drug diluted in media and incubated for 4 additional days at 37° C./5% CO2. Subsequently, the core ELISA was performed as follows. The plates were fixed for 90 seconds with acetone/methanol (1:1, v/v), washed three times with KPL wash solution (KPL, Inc.), blocked for 1 hr at room temperature with TNE buffer containing 10% FBS and then incubated for 2 hr at 37° C. with the anti-HCV core mouse monoclonal antibody (Thermo Scientific) diluted in the same buffer. After washing three times with KPL wash solution, the cells were incubated for 1 hr at 37° C. with an anti-mouse immunoglobulin G-peroxidase conjugate in TNE/10% FBS. After washing as described above, the reaction was developed with O-phenylenediamine (Invitrogen). The reaction was stopped after 30 min with 2 NH2SO4, and absorbance was read at 490 nm in a Victor^3V 1420 multilabel counter (Perkin Elmer) and EC50 concentrations were determined using Microsoft Excel and XLfit 4.1 software.
The HCV luciferase replicon assay measures the ability of a test compound to inhibit HCV replication in cell culture after 3 days of treatment in a human hepatoma cell line (Huh-7) bearing an HCV replicon containing a luciferase-neomycin phosphotransferase fusion gene. […]

[5] = test system: HCV genotype 3a NS5A within the 1b-replicon; assay: Luciferase replicon assay, NS5A-intergenotypic stable cell line genotype 3a; format: cell-based; conditions: Hepatitis C virus, read-out: EC50 3a
From the text: as §4, §5, §1, §2

[6] = test system: HCV genotype 4a NS5A within the 1b-replicon; assay: Luciferase replicon assay, NS5A-intergenotypic stable cell line genotype 4a; format: cell-based; conditions: Hepatitis C virus, read-out: EC50 4a
From the text: as §4, §5, §1, §2

[7] = test system: ZS11-luc L31V (HCV genotype 1b replicon); assay: Luciferase replicon transient transfection assay, ZS11-luc L31V; format: cell-based, hepatitis C virus; conditions: for EC50: Hepatitis C virus, 96 h, Huh7.5 cells, 4 days
Description: (§6) The luciferase replicon transient transfection assay measures the ability of a test compound to inhibit the replication of a transiently-transfected HCV luciferase-bearing wild-type or mutant replicon in cured human hepatoma cells (Huh7.5). The inhibition of HCV replication was measured by quantification of luciferase protein expression. This assay has been validated using a panel of genotype 1a and 1b replicons bearing mutations known to be associated with resistance to BMS-790052. Briefly, subconfluent Huh7.5 cells were electroporated with 10 μg of wild-type or mutant luciferase-bearing HCV replicon RNA. The cells were then seeded in 96-well opaque white plates at 3×10^4 cells/well in 150 μL/well and incubated for 4 hrs at 37° C./5% CO2. Ten 1:5 serial dilutions of each test compound were made in media (DMEM containing glucose, L-glutamine and sodium pyruvate, 10% fetal bovine serum, 100 IU/mL penicillin, 100 μg/mL streptomycin, 2 mM GlutaMAX, and 1×MEM non-essential amino acids (Mediatech, Inc. and Invitrogen Corp.)) at concentrations that were 4× higher than the final concentrations to be tested and 50 μL/well was added to the transfected cells. Untreated, mock-transfected cells served as a negative control of luciferase expression. The plates were incubated at 37° C./5% CO2 for 4 days whereupon the media was removed and 50 μL of ONE-glo luciferase substrate (Promega) was added to each well. The plates were agitated on a rotating platform at room temperature for 3 min and read in a Victor^3V microplate reader (Perkin-Elmer) using a 700 nm cut-off filter with a 1 sec read time. EC50 values were calculated from dose response curves from the resulting best-fit equations determined by Microsoft Excel and XLfit 4.1 software.

[8] = test system: ZS11-luc Y93H (HCV genotype 1b replicon); assay: Luciferase replicon transient transfection assay, ZS11-luc Y93H; format: cell-based, hepatitis C virus; conditions: for EC50: Hepatitis C virus, 96 h, Huh7.5 cells, 4 days
Description: as §6

[9] = test system: ZS11-luc WT (HCV genotype 1b replicon); assay: Luciferase replicon transient transfection assay, ZS11-luc WT; format: cell-based, hepatitis C virus; conditions: Hepatitis C virus, Huh7.5, 96 h, genotype 1b, ZS11-luc WT, Huh7.5 cells, 4 days
Description: as §6

[10] = test system: 1a-luc L31V (HCV genotype 1a replicon); assay: Luciferase replicon transient transfection assay, 1a-luc L31V; format: cell-based, hepatitis C virus; conditions: for EC50: Hepatitis C virus, 96 h, Huh7.5 cells, 4 days
Description: as §6

[11] = test system: 1a-luc Y93H (HCV genotype 1a replicon); assay: Luciferase replicon transient transfection assay, 1a-luc Y93H; format: cell-based, hepatitis C virus; conditions: for EC50: Hepatitis C virus, 96 h, Huh7.5 cells, 4 days
Description: as §6

[12] = test system: 1a-luc Q30E (HCV genotype 1a replicon); assay: Luciferase replicon transient transfection assay, 1a-luc Q30E; format: cell-based, hepatitis C virus; conditions: for EC50: Hepatitis C virus, 96 h, Huh7.5 cells, 4 days
Description: as §6

[13] = test system: 1a-luc WT (HCV genotype 1a replicon); assay: Luciferase replicon transient transfection assay, 1a-luc WT; format: cell-based; conditions: Hepatitis C virus, 96 h, Huh7.5 cells, 4 days
Description: as §6

SMILES | EC50 [1] | CC50 [2] | EC50 [3] | EC50 [4] | EC50 [5] | EC50 [6] | Ratio [7] | EC50 [7] | Ratio [8] | EC50 [8] | EC50 [9] | Ratio [10] | EC50 [10] | Ratio [11] | EC50 [11] | Ratio [12] | EC50 [12] | EC50 [13]
COC(=O)N[C@H](C(=O)N1CCC[C@H]1c1ncc(-c2csc3c(-c4ccc5[nH]c([C@@H]6CCCN6C(=O)[C@@H](NC(=O)OC)C(C)C)nc5c4)csc23)[nH]1)C(C)C [Compound A173, ((S)-1-{(S)-2-[6-(6-{(S)-2-[1-((S)-2-methoxycarbonylamino-3-methyl-butyryl)-pyrrolidin-2-yl]-1H-imidazol-4-yl}-thieno[3,2-b]thiophen-3-yl)-1H-benzoimidazol-2-yl]-pyrrolidine-1-carbonyl}-2-methyl-propyl)-carbamic acid methyl ester] | 10 to 100 nM | 10000 to 75000 nM | < 0.1 nM | 1 to 10 nM | 1 to 10 nM | 1 to 10 nM |  |  |  |  |  |  |  |  |  |  |  | 
COC(=O)N[C@H](C(=O)N1CCCC1c1ncc(-c2csc3c(-c4ccc(-c5cnc(C6CCCN6C(=O)C(c6ccccc6)N6CCCCC6)[nH]5)cc4)csc23)[nH]1)C(C)C (stereo partly drawn) [Compound A219] |  |  |  |  |  |  | 4 | 0.05 nM | 49 | 0.6 nM | 0.01 nM | 442 | 18 nM | 4841 | 210 nM | 25 | 1 nM | 0.04 nM
COC(=O)N[C@H](C(=O)N1CCC[C@H]1c1ncc(-c2ccc(-c3cc4sc(-c5ccc(-c6c[nH]c(C7CCCN7C(=O)[C@H](NC(=O)OC)c7ccccc7)n6)cc5)cc4s3)cc2)[nH]1)C(C)C (stereo partly drawn) [Compound A192] |  |  |  |  |  |  | 20 | 0.05 nM | 138 | 0.4 nM | 0.003 nM | 678 | 11 nM | 5072 | 79 nM | 597 | 9 nM | 0.02 nM
COC(=O)N[C@H](C(=O)N1CCCC1c1nc(-c2cc3sc(-c4cnc([C@@H]5CCCN5C(=O)[C@@H](NC(=O)OC)C(C)C)[nH]4)cc3s2)c[nH]1)C(C)C (stereo partly drawn) [Compound A101] | 10 to 100 nM | > 75000 nM | < 0.1 nM | 1 to 10 nM | 1 to 10 nM | 1 to 10 nM |  |  |  |  |  |  |  |  |  |  |  | 
